Laboratory results as given in patent US12077503B2, “Substituted cyclic amides and their use as herbicides” (FMC CORPORATION, priority 2015, dated 2024).

Legend:
Type in all cases: in vivo
Kochia (Kochia scoparia) [1] = test: Test A preemergence; conditions: Bassia scoparia, pre-emergence, 240 h, 0 to 100 scale where 0 is no effect and 100 is complete control, read-out: Kochia plant response rating; for pest or weed control at 31 g/ha: 31 g ai/ha, Preemergence; for pest or weed control at 125 g/ha: 125 g ai/ha, preemergence, approx. 10 d
Outline: (§1)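 Visual injury scores from 0, no effect, to 100, complete control, were assigned versus untreated controls roughly 10 d after treatment in the greenhouse. Test chemicals, formulated with surfactant in a non-phytotoxic solvent, were applied to planted seeds as a preemergence soil spray or postemergence to one- to two-leaf plants 2 to 10 cm tall, in loam–sand soil.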

[2] = tested on: barnyardgrass (Echinochloa crus-galli); test: Test A preemergence; conditions: Echinochloa crus-galli, pre-emergence, 240 h, 0 to 100 scale where 0 is no effect and 100 is complete control, read-out: Barnyardgrass plant response rating; for pest or weed control at 31 g/ha: 31 g ai/ha, Preemergence; for pest or weed control at 125 g/ha: 125 g ai/ha, preemergence, approx. 10 d
Outline: as §1

[3] = tested on: giant foxtail (Setaria faberii); test: Test A preemergence; conditions: Setaria faberi, pre-emergence, 240 h, 0 to 100 scale where 0 is no effect and 100 is complete control, read-out: Foxtail, Giant plant response rating; for pest or weed control at 31 g/ha: 31 g ai/ha, Preemergence; for pest or weed control at 125 g/ha: 125 g ai/ha, preemergence, approx. 10 d
Outline: as §1

[4] = tested on: pigweed (Amaranthus retroflexus); test: Test A preemergence; conditions: Amaranthus retroflexus, pre-emergence, 240 h, 0 to 100 scale where 0 is no effect and 100 is complete control, read-out: Pigweed plant response rating; for pest or weed control at 31 g/ha: 31 g ai/ha, Preemergence; for pest or weed control at 125 g/ha: 125 g ai/ha, preemergence, approx. 10 d
[5] = tested on: ragweed (common ragweed, Ambrosia elatior); test: Test A preemergence; conditions: Ambrosia artemisiifolia, pre-emergence, 240 h, 0 to 100 scale where 0 is no effect and 100 is complete control, read-out: Ragweed plant response rating; for pest or weed control at 31 g/ha: 31 g ai/ha, Preemergence; for pest or weed control at 125 g/ha: 125 g ai/ha, preemergence, approx. 10 d
Outline: as §1

[6] = tested on: ryegrass, Italian (Italian ryegrass, Lolium multiflorum); test: Test A preemergence; conditions: Lolium multiflorum, pre-emergence, 240 h, 0 to 100 scale where 0 is no effect and 100 is complete control, read-out: Ryegrass, Italian plant response rating; for pest or weed control at 31 g/ha: 31 g ai/ha, Preemergence; for pest or weed control at 125 g/ha: 125 g ai/ha, preemergence, approx. 10 d
Outline: as §1

[7] = tested on: Galium (catchweed bedstraw, Galium aparine); test: Test A postemergence; conditions: Galium, post-emergence, 240 h; for pest or weed control at 125 g/ha: 125 g ai/ha, postemergence, visual injury vs untreated controls after approx. 10 d, 0 = no effect, 100 = complete control, read-out: Galium plant response rating (0 to 100 scale); for pest or weed control at 31 g/ha: Postemergence, 31 g ai/ha, visual injury after approx. 10 d, 0 to 100 scale, 0 no effect, 100 complete control, read-out: Plant response rating, Galium
Outline: as §1

Kochia (Kochia scoparia) [8] = test: Test A postemergence; conditions: Bassia scoparia, post-emergence, 240 h; for pest or weed control at 31 g/ha: Postemergence, 31 g ai/ha, visual injury after approx. 10 d, 0 to 100 scale, 0 no effect, 100 complete control, read-out: Plant response rating, Kochia
Outline: as §1

[9] = tested on: barnyardgrass (Echinochloa crus-galli); test: Test A postemergence; conditions: Echinochloa crus-galli, post-emergence, 240 h; for pest or weed control at 125 g/ha: 125 g ai/ha, postemergence, visual injury vs untreated controls after approx. 10 d, 0 = no effect, 100 = complete control, read-out: Barnyardgrass plant response rating (0 to 100 scale); for pest or weed control at 31 g/ha: Postemergence, 31 g ai/ha, visual injury after approx. 10 d, 0 to 100 scale, 0 no effect, 100 complete control, read-out: Plant response rating, Barnyardgrass
Outline: as §1

[10] = tested on: blackgrass (Alopecurus myosuroides); test: Test A postemergence; conditions: Alopecurus myosuroides, post-emergence, 240 h; for pest or weed control at 125 g/ha: 125 g ai/ha, postemergence, visual injury vs untreated controls after approx. 10 d, 0 = no effect, 100 = complete control, read-out: Blackgrass plant response rating (0 to 100 scale); for pest or weed control at 31 g/ha: Postemergence, 31 g ai/ha, visual injury after approx. 10 d, 0 to 100 scale, 0 no effect, 100 complete control, read-out: Plant response rating, Blackgrass
Outline: as §1

corn (Zea mays) = test: Test A postemergence; conditions: Zea mays, post-emergence, 240 h; for plant injury at 125 g/ha: 125 g ai/ha, postemergence, visual injury vs untreated controls after approx. 10 d, 0 = no effect, 100 = complete control, read-out: Corn plant response rating (0 to 100 scale); for Corn plant response rating (crop injury, 0 = no effect, 100 = complete kill) at 31 g/ha: Postemergence, 31 g ai/ha, visual injury after approx. 10 d, 0 to 100 scale, 100 complete control
Outline: as §1

[11] = tested on: giant foxtail (Setaria faberii); test: Test A postemergence; conditions: Setaria faberi, post-emergence, 240 h; for pest or weed control at 125 g/ha: 125 g ai/ha, postemergence, visual injury vs untreated controls after approx. 10 d, 0 = no effect, 100 = complete control, read-out: Foxtail, Giant plant response rating (0 to 100 scale); for pest or weed control at 31 g/ha: Postemergence, 31 g ai/ha, visual injury after approx. 10 d, 0 to 100 scale, 0 no effect, 100 complete control, read-out: Plant response rating, Foxtail, Giant
Outline: as §1

[12] = tested on: pigweed (Amaranthus retroflexus); test: Test A postemergence; conditions: Amaranthus retroflexus, post-emergence, 240 h, 125 g ai/ha, postemergence, visual injury vs untreated controls after approx. 10 d; 0 = no effect, 100 = complete control; read-out: Pigweed plant response rating (0 to 100 scale)
Outline: as §1

[13] = tested on: ragweed (common ragweed, Ambrosia elatior); test: Test A postemergence; conditions: Ambrosia artemisiifolia, post-emergence, 240 h, 125 g ai/ha, postemergence, visual injury vs untreated controls after approx. 10 d; 0 = no effect, 100 = complete control; read-out: Ragweed plant response rating (0 to 100 scale)
Outline: as §1

[14] = tested on: ryegrass, Italian (Italian ryegrass, Lolium multiflorum); test: Test A postemergence; conditions: Lolium multiflorum, post-emergence, 240 h, 125 g ai/ha, postemergence, visual injury vs untreated controls after approx. 10 d; 0 = no effect, 100 = complete control; read-out: Ryegrass, Italian plant response rating (0 to 100 scale)
Outline: as §1

[15] = tested on: wheat (Triticum aestivum); test: Test A postemergence; conditions: Triticum aestivum, post-emergence, 240 h, 125 g ai/ha, postemergence, visual injury vs untreated controls after approx. 10 d; 0 = no effect, 100 = complete control; read-out: Wheat plant response rating (0 to 100 scale)
Outline: as §1

[16] = tested on: barnyardgrass (Echinochloa crus-galli); test: Test B flooded paddy test; conditions: Echinochloa crus-galli, 250 g ai/ha, Flood; 0 to 100 scale where 0 is no effect and 100 is complete control; read-out: Barnyardgrass plant response rating
Outline: (§2)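 Response scored visually against untreated controls, 0 = no effect and 100 = complete control, 13–15 d after treatment in the greenhouse. Compounds added to paddy water held 3 cm above soil surface. Treatment given at 2-leaf stage.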

[17] = tested on: ducksalad (Heteranthera limosa); test: Test B flooded paddy test; conditions: Heteranthera limosa, 250 g ai/ha, Flood; 0 to 100 scale where 0 is no effect and 100 is complete control; read-out: Ducksalad plant response rating
Outline: as §2

rice (Oryra sativa) = test: Test B flooded paddy test; conditions: Oryza sativa, 250 g ai/ha, Flood; 0 to 100 scale where 0 is no effect and 100 is complete control; read-out: Rice plant response rating
Outline: as §2

[18] = tested on: sedge, umbrella (small-flower umbrella sedge, Cyperus difformis); test: Test B flooded paddy test; conditions: Cyperus difformis, 250 g ai/ha, Flood; 0 to 100 scale where 0 is no effect and 100 is complete control; read-out: Sedge, Umbrella plant response rating
Outline: as §2

Structure (SMILES) | pest or weed control at 31 g/ha (Kochia (Kochia scoparia) [1]) | pest or weed control at 125 g/ha (Kochia (Kochia scoparia) [1]) | pest or weed control at 31 g/ha [2] | pest or weed control at 125 g/ha [2] | pest or weed control at 31 g/ha [3] | pest or weed control at 125 g/ha [3] | pest or weed control at 31 g/ha [4] | pest or weed control at 125 g/ha [4] | pest or weed control at 31 g/ha [5] | pest or weed control at 125 g/ha [5] | pest or weed control at 31 g/ha [6] | pest or weed control at 125 g/ha [6] | pest or weed control at 125 g/ha [7] | pest or weed control at 31 g/ha [7] | pest or weed control at 31 g/ha (Kochia (Kochia scoparia) [8]) | pest or weed control at 125 g/ha [9] | pest or weed control at 31 g/ha [9] | pest or weed control at 125 g/ha [10] | pest or weed control at 31 g/ha [10] | plant injury at 125 g/ha (corn (Zea mays)) | also measured
CON1CC[C@H](c2cccc(C(F)(F)F)c2)[C@@H](C(=O)Nc2ccc(F)c(F)c2F)C1=O [Compound 1170] | 0% | 0% | 0% | 40% | 0% | 70% | 0% | 0% | 0% | 0% | 0% | 0% | 30% | 20% | 0% | 60% | 0% | 20% | 0% | 0% | Corn plant response rating (crop injury, 0 = no effect, 100 = complete kill) at 31 g/ha (corn (Zea mays)): 0%; pest or weed control at 125 g/ha [11]: 60%; pest or weed control at 31 g/ha [11]: 0%; pest or weed control at 125 g/ha [12]: 0%; pest or weed control at 125 g/ha [13]: 0%; pest or weed control at 125 g/ha [14]: 0%; plant injury at 125 g/ha [15]: 0%; pest or weed control at 250 g/ha [16]: 30%; pest or weed control at 250 g/ha [17]: 40%; pest or weed control at 250 g/ha (rice (Oryra sativa)): 0%; pest or weed control at 250 g/ha [18]: 0%
CON1CC[C@H](c2cccc(C(F)(F)F)c2)[C@@H](C(=O)Nc2ccccc2C(F)(F)F)C1=O [Compound 1172] | 0% | 0% | 0% | 0% | 0% | 0% | 0% | 0% | 0% | 0% | 0% | 0% | 0% | 0% | 0% | 0% | 0% | 0% | 0% | 0% | pest or weed control at 125 g/ha (Kochia (Kochia scoparia) [8]; 125 g ai/ha, postemergence, visual injury vs untreated controls after approx. 10 d, 0 = no effect, 100 = complete control, read-out: Kochia plant response rating (0 to 100 scale)): 0%; Corn plant response rating (crop injury, 0 = no effect, 100 = complete kill) at 31 g/ha (corn (Zea mays)): 0%; pest or weed control at 125 g/ha [11]: 0%; pest or weed control at 31 g/ha [11]: 0%; pest or weed control at 125 g/ha [12]: 0%; pest or weed control at 125 g/ha [13]: 0%; pest or weed control at 125 g/ha [14]: 0%; plant injury at 125 g/ha [15]: 0%; pest or weed control at 250 g/ha [16]: 0%; pest or weed control at 250 g/ha [17]: 0%; pest or weed control at 250 g/ha (rice (Oryra sativa)): 0%; pest or weed control at 250 g/ha [18]: 0%
